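Cells were grown in 96-well plates and exposed to each compound for 48 hours at five concentrations; endpoints were interpolated linearly between bracketing concentrations, or set to the highest concentration if not reached. GI50 = concentration required for 50% inhibition of growth. TGI: total growth inhibition.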
Experiments:
Assay in all cases: DTP human tumour cell line panel, 48 h
[1] = tested on: HOP-92 NSCLC
[2] = tested on: HCT-116 colon
[3] = tested on: SF-539 CNS
[4] = tested on: SNB-19 CNS
[5] = tested on: NCI-H23 lung
[6] = tested on: K-562 leukemia
[7] = tested on: NCI-H522 lung
[8] = tested on: SK-MEL-28 melanoma
[9] = tested on: BT-549 breast
[10] = tested on: T-47D breast

| Structure (SMILES) | TGI [1] [µM] | TGI [2] [µM] | TGI [3] [µM] | TGI [4] [µM] | TGI [5] [µM] | TGI [6] [µM] | TGI [7] [µM] | TGI [8] [µM] | TGI [9] [µM] | GI50 [2] [µM] | TGI [10] [µM] |
| --- | --- | --- | --- | --- | --- | --- | --- | --- | --- | --- | --- |
| CCC(C)C(N)C(=O)NC(CC(N)=O)C(=O)NC(CC(C)C)C(=O)NC(CCCCN)C(=O)NC(C)C(=O)NC(CC(C)C)C(=O)NC(C)C(=O)NC(C)C(=O)NC(CC(C)C)C(=O)NC(C)C(=O)NC(CCCCN)C(=O)NC(CCCCN)C(=O)NC(C(=O)NC(CC(C)C)C(N)=O)C(C)CC (stereo not given) | 5.38 | 29 | 11.3 | 27.8 | 29 | 36.3 | 33.3 | 22 | – | – | – |
| C=CCNC(=S)N1CC(C)C(=O)Nc2cc(Cl)ccc21 (stereo not given) | > 100 | > 100 | > 100 | > 100 | > 100 | > 100 | > 100 | > 100 | – | – | – |
| NCCSc1cc(O)c2c(c1N)C(=O)c1ccccc1C2=O | > 100 | > 100 | > 100 | > 100 | > 100 | 69.1 | 39.7 | > 100 | – | – | – |
| COc1ccccc1Cc1ccc(C2C=CC3(CC(=O)C=C3C)C(=O)C2)o1 (stereo not given) | 75.6 | 89.6 | 42.9 | > 100 | 58.3 | 50.1 | 37.4 | > 100 | 58.7 | – | – |
| Nc1ccc2[nH]c(-c3cccc(C(F)(F)F)c3)cc(=O)c2c1 | > 100 | > 100 | 53 | > 100 | > 100 | – | > 100 | > 100 | > 100 | 52 | – |
| Cc1[nH]c(=O)[nH]c(=O)c1/C=C/C(=O)O (tested in a mixture with another compound) | 623 | > 625 | > 625 | > 625 | > 625 | > 625 | > 625 | > 625 | – | – | – |
| C=CCN1/C(=C(\C#N)c2nc3ccccc3[nH]2)Sc2c1nc[nH]c2=O | > 100 | > 100 | > 100 | > 100 | > 100 | > 100 | > 100 | > 100 | – | – | – |
| N#Cc1ccc(Cc2ccccn2)cc1Cl | > 100 | – | > 100 | > 100 | > 100 | > 100 | > 100 | > 100 | – | – | – |
| CC(CCC[C@H](C)CO)[C@H]1[C@@H](O)C(O)C2[C@@H]3C[C@@H](O)C4(O)C[C@@H](O)CC[C@]4(C)C3CC[C@@]21C (stereo not given in full) | > 100 | > 100 | > 100 | > 100 | > 100 | > 100 | > 100 | > 100 | – | – | – |
| CNC(=O)NCNC(=O)NC | > 100 | > 100 | > 100 | – | > 100 | > 100 | – | > 100 | – | – | – |
| CCCCn1c(CSc2ccc(Cl)cc2)c(C(=O)OCC)c2cc(OC)c(Br)cc21 | – | > 100 | – | > 100 | > 100 | > 100 | > 100 | > 100 | > 100 | – | > 100 |
| CC(=O)OC(CC1(C)C(C)CCC23COC(=O)C2=CCCC31)c1ccoc1 (stereo not given) | 52.5 | 61.6 | 62.5 | 82.9 | 54.5 | > 100 | 35.6 | 33 | – | – | – |
| COC(=O)C1CCC(=O)N1C(c1cc(OC)c(OC)c(OC)c1)c1cc(OC)c(OC)c(OC)c1 (stereo not given) | > 100 | > 100 | > 100 | > 100 | – | > 100 | > 100 | > 100 | – | – | > 100 |
| CCOC(=O)CC1COc2ccc3c(c21)OCO3 (stereo not given) | > 100 | > 100 | > 100 | > 100 | > 100 | > 100 | – | > 100 | – | – | – |
| CC1(c2sccc2Cl)CC(c2sccc2Cl)=C(C#N)C(=C(C#N)C#N)N1 (stereo not given) | – | 32.2 | 36.7 | 38.5 | 35.9 | – | 35.8 | 34.8 | 32.3 | – | 42.1 |
| CCOC(=O)C(=O)C=P(c1ccccc1)(c1ccccc1)c1ccccc1 | > 100 | > 100 | > 100 | > 100 | > 100 | > 100 | > 100 | > 100 | – | – | – |
| COC(=O)C1CCC(=S)N1C(=O)OCc1ccccc1 (stereo not given) | > 100 | > 100 | – | > 100 | > 100 | > 100 | > 100 | > 100 | > 100 | – | > 100 |
| CC(CC(N)C(=O)O)C(=O)O (stereo not given) | > 100 | > 100 | – | > 100 | > 100 | > 100 | > 100 | > 100 | > 100 | – | > 100 |
| COC(=O)c1c(C(=O)OC)c2ccccn2c1-c1cc(OC)c(Br)c(=O)o1 | – | > 100 | > 100 | > 100 | > 100 | > 100 | > 100 | > 100 | – | – | > 100 |
| COc1ccc(OC)c(NCC(=O)Nn2cnc3ccc(S(=O)(=O)Nc4cc(OC)ccc4OC)cc3c2=O)c1 | > 100 | > 100 | > 100 | > 100 | > 100 | > 100 | > 100 | > 100 | > 100 | – | – |
| COc1cccc(C23CCCC(C2)NCC3Br)c1OC (stereo not given) | > 100 | > 100 | – | > 100 | > 100 | > 100 | 53.3 | > 100 | 92.3 | – | > 100 |
| Clc1cccc(-c2sc(-c3ccsc3)cc2Cc2ccsc2)c1 | > 10 | – | – | – | > 10 | > 10 | – | > 10 | – | – | > 10 |
| COc1cc2c(c(OC)c1OC)-c1ccc(SC)c(=O)cc1C(CC(=O)Oc1cccc([N+](=O)[O-])c1)C2 (stereo not given) | > 100 | 3.72 | 1.32 | > 100 | – | > 100 | 5.81 | > 100 | – | – | – |
| COc1cc2c3cc1Oc1c(O)c(OC)cc4c1C(Cc1ccc(O)c(c1)Oc1ccc(cc1)CC3N(C)CC2)N(C)CC4 (stereo not given) | 24.3 | 22.5 | 5.8 | 68 | 39 | 10.3 | 29.7 | 32.8 | – | – | – |
